# Data from ChEMBL document CHEMBL1221220, “Transport and signaling via the amino acid binding site of the yeast Gap1 amino acid transceptor” (Nat Chem Biol, 2009).
# Calls of active or inactive are those of the source. The calls are words filed in the database; no cut-off is given here. Residues, ends and D or L forms follow the SMILES beside them. *: point of attachment. βNA = c1ccc2cc(N*)ccc2c1
# T1: General amino-acid permease GAP1 (Saccharomyces cerevisiae) (UniProt P19145)
# T1 sequence (whole entry): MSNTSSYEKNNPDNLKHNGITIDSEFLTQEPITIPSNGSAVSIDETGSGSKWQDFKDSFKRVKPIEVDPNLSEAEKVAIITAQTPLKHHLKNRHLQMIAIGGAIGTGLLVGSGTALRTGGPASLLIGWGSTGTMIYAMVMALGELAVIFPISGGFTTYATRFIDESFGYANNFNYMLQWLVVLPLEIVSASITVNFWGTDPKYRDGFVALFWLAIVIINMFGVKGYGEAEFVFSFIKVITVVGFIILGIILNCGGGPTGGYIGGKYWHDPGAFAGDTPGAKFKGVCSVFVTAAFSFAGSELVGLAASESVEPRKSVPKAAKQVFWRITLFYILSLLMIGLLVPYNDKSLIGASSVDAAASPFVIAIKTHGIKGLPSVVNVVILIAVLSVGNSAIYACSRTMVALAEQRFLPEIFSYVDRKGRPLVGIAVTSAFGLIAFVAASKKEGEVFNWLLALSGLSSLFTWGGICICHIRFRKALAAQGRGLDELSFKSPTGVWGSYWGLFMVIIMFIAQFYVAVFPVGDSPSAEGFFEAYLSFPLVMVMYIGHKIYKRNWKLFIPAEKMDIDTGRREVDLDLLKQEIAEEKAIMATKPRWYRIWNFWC
# T2: General amino-acid permease GAP1 (Saccharomyces cerevisiae, UniProt P19145)
# T2 sequence (P19145 whole entry): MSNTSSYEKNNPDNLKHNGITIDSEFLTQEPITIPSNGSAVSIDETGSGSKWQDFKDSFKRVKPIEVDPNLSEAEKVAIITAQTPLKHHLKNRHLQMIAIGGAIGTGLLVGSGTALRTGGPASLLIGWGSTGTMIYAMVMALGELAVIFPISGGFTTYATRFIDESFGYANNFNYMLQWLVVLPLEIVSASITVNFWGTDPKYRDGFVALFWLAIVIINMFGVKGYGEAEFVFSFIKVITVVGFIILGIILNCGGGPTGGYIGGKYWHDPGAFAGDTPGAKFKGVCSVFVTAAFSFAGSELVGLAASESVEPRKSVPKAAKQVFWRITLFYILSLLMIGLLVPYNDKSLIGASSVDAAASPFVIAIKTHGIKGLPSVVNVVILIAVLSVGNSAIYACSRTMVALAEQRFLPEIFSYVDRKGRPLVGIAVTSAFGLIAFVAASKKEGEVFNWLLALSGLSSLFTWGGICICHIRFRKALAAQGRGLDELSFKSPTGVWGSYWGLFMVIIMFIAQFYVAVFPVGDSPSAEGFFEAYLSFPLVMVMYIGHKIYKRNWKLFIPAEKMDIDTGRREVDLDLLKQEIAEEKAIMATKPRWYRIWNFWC
# Key:
# [1] = molecular target: T1, General amino-acid permease GAP1 (Saccharomyces cerevisiae); test: Induction of nitrogen-starved wild type sigma1278b yeast Gap1-mediated […] activation at 10 mM
# [2] = molecular target: T1, General amino-acid permease GAP1 (Saccharomyces cerevisiae); test: Inhibition of nitrogen-starved wild type sigma1278b yeast Gap1 assessed as reduction of L-citrulline-mediated trehalose activation at 5 to 10 mM
# [3] = molecular target: T1, General amino-acid permease GAP1 (Saccharomyces cerevisiae); test: Induction of nitrogen-starved wild type sigma1278b yeast Gap1-mediated amino acid uptake at 5 mM after 90 mins
# [4] = molecular target: T1, General amino-acid permease GAP1 (Saccharomyces cerevisiae); test: Inhibition of L-Arg-L-Gly-L-Gly-induced nitrogen-starved wild type sigma1278b yeast Gap1
# [5] = molecular target: T2, General amino-acid permease GAP1; test: Competitive inhibition of nitrogen-starved wild type sigma1278b yeast Gap1 by Lineweaver-Burke plot analysis
# [6] = molecular target: T1, General amino-acid permease GAP1 (Saccharomyces cerevisiae); test: Noncompetitive inhibition of nitrogen-starved wild type sigma1278b yeast Gap1-mediated amino acid uptake at 5 mM after 60 secs relative to L-citrulline
# [7] = molecular target: T1, General amino-acid permease GAP1 (Saccharomyces cerevisiae); test: Competitive inhibition of nitrogen-starved wild type sigma1278b yeast Gap1-mediated amino acid uptake at 5 mM after 60 secs relative to L-citrulline
# [8] = molecular target: T1, General amino-acid permease GAP1 (Saccharomyces cerevisiae); test: Induction of nitrogen-starved wild type sigma1278b yeast Gap1-mediated […] activation at 5 mM
# [9] = molecular target: T1, General amino-acid permease GAP1 (Saccharomyces cerevisiae); test: Induction of nitrogen-starved wild type sigma1278b yeast Gap1-mediated […] activation at 5 mM in presence of 10 mM MTSEA treated before compound addition
# [10] = molecular target: T2, General amino-acid permease GAP1; test: Noncompetitive inhibition of nitrogen-starved wild type sigma1278b Gap1-mediated amino acid transport by Lineweaver-Burke plot analysis
# [11] = substrate: NC(=O)NCCC[C@H](N)C(=O)O; test: Activity at nitrogen-starved wild type sigma1278b Gap1; conditions: Saccharomyces cerevisiae
Molecule,Activity [1],inhibition [6] [%],further results
O=C(O)[C@@H]1CCCN1,Active,,
N[C@@H](Cc1c[nH]c2ccccc12)C(=O)O,inactive,,
N[C@@H](CC(=O)N[C@@H](CCC(=O)O)c1ccccc1)C(=O)O,,,inhibition [2]: Active; Activity [3]: inactive; inhibition [4]: inactive; Ki [5]: 105 µM
N[C@@H](Cc1c[nH]cn1)C(=O)O,inactive,,
N[C@@H](CCC(=O)O)C(=O)O,Active,,
CC(C)C[C@H](NC(=O)[C@H](CC(C)C)NC(=O)[C@@H](N)CC(C)C)C(=O)O (H-Leu-Leu-Leu-OH),,15,
N=C(N)NCCC[C@H](NC(=O)[C@@H](N)CCCNC(=N)N)C(=O)Nc1ccc2ccccc2c1 (H-Arg-Arg-βNA),,> 30,
CC(N)C(=O)NC(Cc1ccccc1)C(=O)O (racemic),,> 30,
N[C@@H](Cc1ccccc1)C(=O)O,Active,,
N[C@@H](CC(=O)O)C(=O)N[C@@H](Cc1ccccc1)C(=O)O (H-Asp-Phe-OH),,,inhibition [7]: > 30%
N[C@@H](CC(=O)O)C(=O)O,Active,,
N[C@@H](CO)C(=O)O,Active,,
CC(C)C[C@H](NC(=O)[C@H](C)N)C(=O)O (H-Ala-Leu-OH),,> 30,
CC(C)C[C@H](N)C(=O)NCC(=O)O (H-Leu-Gly-OH),,,Activity [3]: inactive; Ki [5]: 190 µM; inhibition [7]: > 30%; Activity [8]: Active; Activity [9]: inactive
CSCC[C@H](NC(=O)[C@@H](N)CC(C)C)C(N)=O (H-Leu-Met-NH2),inactive,> 30,Ki [10]: 5000 µM
NC(N)=NCCC[C@H](N)C(=O)NCC(=O)O (H-Arg-Gly-OH),,> 30,
CSCC[C@H](NC(=O)[C@@H](N)CC(C)C)C(=O)O (H-Leu-Met-OH),,15,
N=C(N)NCCC[C@H](N)C(=O)N[C@@H](Cc1ccccc1)C(=O)N[C@@H](Cc1ccccc1)C(=O)O (H-Arg-Phe-Phe-OH),Active,> 30,Ki [10]: 12000 µM
NCCCC[C@H](N)C(=O)O,inactive,,
C[C@H](NC(=O)[C@H](Cc1ccccc1)NC(=O)[C@@H](N)CCCNC(=N)N)C(=O)O (H-Arg-Phe-Ala-OH),,> 30,
C[C@@H](O)[C@H](N)C(=O)O,Active,,
"General amino-acid permease GAP1 (Saccharomyces cerevisiae), P19145 (protein) MSNTSSYEKNNPDNLKHNGITIDSEFLTQEPITIPSNGSAVSIDETGSGSKWQDFKDSFKRVKPIEVDPNLSEAEKVAIITAQTPLKHHLKNRHLQMIAIGGAIGTGLLVGSGTALRTGGPASLLIGWGSTGTMIYAMVMALGELAVIFPISGGFTTYATRFIDESFGYANNFNYMLQWLVVLPLEIVSASITVNFWGTDPKYRDGFVALFWLAIVIINMFGVKGYGEAEFVFSFIKVITVVGFIILGIILNCGGGPTGGYIGGKYWHDPGAFAGDTPGAKFKGVCSVFVTAAFSFAGSELVGLAASESVEPRKSVPKAAKQVFWRITLFYILSLLMIGLLVPYNDKSLIGASSVDAAASPFVIAIKTHGIKGLPSVVNVVILIAVLSVGNSAIYACSRTMVALAEQRFLPEIFSYVDRKGRPLVGIAVTSAFGLIAFVAASKKEGEVFNWLLALSGLSSLFTWGGICICHIRFRKALAAQGRGLDELSFKSPTGVWGSYWGLFMVIIMFIAQFYVAVFPVGDSPSAEGFFEAYLSFPLVMVMYIGHKIYKRNWKLFIPAEKMDIDTGRREVDLDLLKQEIAEEKAIMATKPRWYRIWNFWC",,,Km [11]: 37 µM
